Measured values taken from patent US20140066394A1, “Substituted 6-(Benzylamino) Purine Riboside Derivatives, Use Thereof and Compositions Containing These Derivatives” (Biopatterns, S.R.O, priority 2009, published 2014).

Columns and labels:
Type in all cases: cell-based
[1] = test system: human myeloid leukemia K-562; test: In vitro cytotoxicity, Calcein AM assay, K-562; conditions: Homo sapiens, K562, 72 hours
Source text: (§1) Low cytotoxicity of the compounds is the major property determining the cosmetic use. One of the parameters used, as the basis for cytotoxicity assays, is the metabolic activity of viable cells. For example, a microtiter assay, which uses the Calcein AM, is now widely used to quantitate cell proliferation and cytotoxicity. For instance, this assay is used in drug screening programs and in chemosensitivity testing. Because only metabolically active cells cleave Calcein AM, these assays detect viable cells exclusively. The quantity of […] Calcein AM corresponds to the number of vital cells in the culture.
(§2) Human T-lymphoblastic leukemia cell line CEM; promyelocytic HL-60 and monocytic U937 leukemias; breast carcinoma cell lines MCF-7, BT549, MDA-MB-231; glioblastoma U87MG cells; cervical carcinoma cells HELA; sarcoma cells U2OS and Saos2; hepatocellular carcinoma HepG2; mouse fibroblasts NIH3T3; mouse immortalized bone marrow macrophages B2.4 and B10A.4; P388D1 and L1210 leukemia; B16 and B16F10 melanomas; human osteosarcoma HOS; human myeloid leukemia K-562; human skin melanoma G-361 were used for routine screening of compounds. The cells were maintained in Nunc/Corning 80 cm^2 plastic tissue culture flasks and cultured in cell culture medium (DMEM with 5 g/l glucose, 2 mM glutamine, 100 U/mL penicillin, 100 μg/mL streptomycin, 10% fetal calf serum and sodium bicarbonate).
(§3) The cell suspensions that were prepared and diluted according to the particular cell type and the expected target cell density (2.500-30.000 cells per well based on cell growth characteristics) were added by pipette ([…]) into 96/well microtiter plates. Inoculates were allowed a pre-incubation period of 24 hours at 37° C. and 5% CO2 for stabilisation. Four-fold dilutions of the intended test concentration were added at time zero in 20 μl aliquots to the microtiter plate wells. Usually, the compound tested was evaluated at six 4-fold dilutions. In routine testing, the highest well concentration was 100 μM, but it can be the matter of change dependent on the agent. All drug concentrations were examined in duplicates. Incubations of cells with the tested compounds lasted for 72 hours at 37° C., in 5% CO2 atmosphere and 100% humidity. At the end of the incubation period, the cells were assayed by using Calcein AM. Ten microliters of the stock solution were pipetted into each well and incubated for 1 hour. Fluorescence (FD) was measured with the Labsystem FIA Reader Fluoroscan Ascent (UK). The tumour cell survival (GI50) was calculated using the following equitation: TCS=(FDdrug exposed well/mean FDeontrol wells)×100%. The GI50 value, the drug concentration lethal to 50% of the tumour cells, was calculated from the obtained dose response curves.
(§4) Zero cytotoxicity of the novel compounds is the basic prerequisite for agricultural and tumor-unrelated applications. The cytoxicity of the novel compounds was tested on a panel of cell lines of different histogenetic and species origin (Table 9). We show herein that equal activities were found in all tumour cell lines tested, however, the non-malignant cells, e.g. NIH3T3 fibroblasts and normal human lymphocytes, were resistant to 2,6-disubstituted purine ribosides induced cytotoxicity. The compounds listed in Tab. 9 can be divided into 2 groups. The first group contains “classical cytokinins” represented by 6-substituted purine ribosides (which are known in the prior art). The second group contains the novel 2,6-disubstituted derivatives of these compounds. […] GI50 for NIH3T3 fibroblasts and normal human lymphocytes was always higher than 100 μM. The novel derivatives show no toxicity to normal and tumour cells in concentrations about 100 μM and thus are more suitable for agricultural applications than “classical cytokinins” (6-substituted purine riboside derivatives).

human osteosarcoma HOS = test: In vitro cytotoxicity, Calcein AM assay, HOS; conditions: Homo sapiens, 72 hours
Source text: as §1, §2, §3, §4

neutrophils = test: ANCA induced neutrophil apoptosis; conditions: Homo sapiens, 10 hours, TNFα pre-treated, anti-PR3 and anti-MPO ANCA (FIG. 9), read-out: IC50 for overcoming the increase in apoptosis imposed by ANCA
Protocol: Neutrophils were cultured at 2×10^6 cells/ml for 10 h in RPMI1640 medium containing human serum and antibiotics and a range of concentrations of compound 10 in the absence or presence of ANCA. Apoptosis was determined by flow cytometry after DiOC6 staining.
ANCA are predominantly IgG autoantibodies directed against constituents of primary granules of neutrophils (PR3 and MPO). ANCA associated vasculitis is the most common primary systemic small-vessel vasculitis in adults. The common pathology of this disease is focal necrotizing lesions of blood vessels and may affect different vessels and organs. […] Neutrophils were cultured for 10 hours in RPMI1640 medium containing 2% human AB serum, 2 mM L-glutamine and antibiotics (100 U/ml penicillin, […] streptomycin) and their apoptosis determined by staining with Giemsa stain and observing an apoptotic morphology by light microscopy. […] The ability of compound 10 to inhibit ANCA-induced neutrophil inflammatory functions was also determined Neutrophils were cultured in RPMI1640 medium containing 2% human AB serum, 2 mM L-glutamine and antibiotics (100 U/ml penicillin, […] streptomycin). […] ANCA stimulated degranulation of neutrophils was assessed by release of myeloperoxidase in to the medium over a 30 minute period, with MPO measured by ELISA. […] HUVEC viability was determined by trypan blue staining and light microscopy.

IC50 (neutrophils): 4 µM
SMILES: COc1cccc(CNc2nc(Cl)nc3c2ncn3C2OC(CO)C(O)C2O)c1O (stereo not drawn) [Compound 10, 2-Chloro-6-(2-hydroxy-3-methoxybenzylamino)purine riboside]
GI50 [1]: > 100 µM
GI50 (human osteosarcoma HOS): > 100 µM
